The text below walks through data of patent publication US7855290B2, “Pyridine derivatives and pyrimidine derivatives (3)” (Eisai R&D Management Co., Ltd., priority 2005, dated 2010).

Each structure is given as a SMILES string.

One experiment addresses T1, HGFR (Homo sapiens, UniProt P08581).
T1 construct: endogenous in cells; host or cells: MKN-45 human gastric cancer cells
The experiment in a line: Inhibitory activity against the HGFR autophosphorylation using ELISA (MKN-45 cells). It is filed as cell-based. To be noted: 1 hr with test substance. Summed up: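 MKN-45 gastric cancer cells, plated overnight in 1% FBS RPMI1640, treated with compound 1 h at 37° C and lysed. Lysate captured on anti-phosphotyrosine (PY20) plates, probed with anti-HGFR then HRP anti-rabbit IgG; TMB absorbance at 450 nm. Activity expressed as % of untreated extract (100%) versus lysis buffer blank (0%).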

Experiment [1] relates to Human gastric cancer cells (MKN-45). As to the kind of experiment: Inhibitory activity against the proliferation of human gastric cancer cells (MKN-45). It is filed as cell-based. To be noted: 72 h, MKN-45, 1% FBS RPMI1640, 3 days, Cell Counting Kit-8. The method in brief: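 MKN-45 cells seeded overnight in RPMI1640 with 1% FBS, then exposed to compound for 3 days at 37° C, 5% CO2. Viability read with CCK-8 after about 1.5 hrs, absorbance at 450 nm (reference 660 nm).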

T1 sequence (P08581 25-1390): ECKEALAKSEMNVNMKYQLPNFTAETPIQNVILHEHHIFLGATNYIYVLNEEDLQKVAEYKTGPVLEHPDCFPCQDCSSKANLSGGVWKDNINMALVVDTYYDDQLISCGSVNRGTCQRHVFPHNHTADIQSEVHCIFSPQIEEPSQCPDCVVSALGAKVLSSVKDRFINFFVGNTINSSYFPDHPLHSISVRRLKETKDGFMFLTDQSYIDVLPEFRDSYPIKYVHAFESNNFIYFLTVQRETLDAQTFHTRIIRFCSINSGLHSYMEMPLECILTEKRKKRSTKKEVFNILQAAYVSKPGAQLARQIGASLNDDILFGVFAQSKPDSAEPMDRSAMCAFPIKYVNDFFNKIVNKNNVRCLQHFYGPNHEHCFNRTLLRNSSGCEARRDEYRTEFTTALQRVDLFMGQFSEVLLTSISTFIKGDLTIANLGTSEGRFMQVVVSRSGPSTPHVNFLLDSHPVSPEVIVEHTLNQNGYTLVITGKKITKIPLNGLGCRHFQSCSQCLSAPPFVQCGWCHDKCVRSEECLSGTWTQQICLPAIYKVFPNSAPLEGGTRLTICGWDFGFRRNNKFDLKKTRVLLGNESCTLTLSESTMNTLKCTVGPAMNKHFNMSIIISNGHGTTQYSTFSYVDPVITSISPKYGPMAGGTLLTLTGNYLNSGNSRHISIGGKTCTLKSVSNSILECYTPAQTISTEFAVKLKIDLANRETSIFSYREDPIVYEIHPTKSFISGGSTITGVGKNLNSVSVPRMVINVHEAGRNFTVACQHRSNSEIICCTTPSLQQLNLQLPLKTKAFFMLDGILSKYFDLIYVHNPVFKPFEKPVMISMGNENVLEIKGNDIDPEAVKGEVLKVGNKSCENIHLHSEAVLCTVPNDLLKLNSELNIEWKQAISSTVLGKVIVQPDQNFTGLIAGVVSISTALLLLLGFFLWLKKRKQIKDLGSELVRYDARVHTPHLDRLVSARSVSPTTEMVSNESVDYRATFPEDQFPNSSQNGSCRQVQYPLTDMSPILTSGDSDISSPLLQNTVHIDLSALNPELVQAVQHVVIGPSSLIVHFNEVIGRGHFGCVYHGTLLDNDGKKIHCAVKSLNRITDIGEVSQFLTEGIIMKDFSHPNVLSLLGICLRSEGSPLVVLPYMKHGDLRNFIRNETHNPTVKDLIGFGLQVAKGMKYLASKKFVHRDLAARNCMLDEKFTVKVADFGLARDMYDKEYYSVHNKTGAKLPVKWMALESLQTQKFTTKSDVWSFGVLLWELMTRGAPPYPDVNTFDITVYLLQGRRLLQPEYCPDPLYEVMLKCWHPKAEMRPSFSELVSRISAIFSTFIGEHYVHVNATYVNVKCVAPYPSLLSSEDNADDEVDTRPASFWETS

For `O=C(Nc1cc(Oc2ccc(NC(=O)C3(C(=O)Nc4ccc(F)cc4)CC3)cc2F)ccn1)N1CCC(N2CCC2)CC1` [Example 11, N-{4-[(2-{[(4-Azetidin-1-ylpiperidin-1-yl)carbonyl]amino}pyridin-4-yl)oxy]-3-fluorophenyl}-N′-(4-fluorophenyl)cyclopropane-1,1-dicarboxamide], the IC50 stood at 13 nM against HGFR and 34 nM in experiment [1].

With `CN(C)CC1CN(C(=O)Nc2cc(Oc3ccc(NC(=O)C4(C(=O)Nc5ccc(F)cc5)CC4)c(F)c3F)ccn2)C1` [Example 107, N-[4-({2-[({3-[(Dimethylamino)methyl]azetidine-1-yl}carbonyl)amino]pyridin-4-yl}oxy)-2,3-difluorophenyl]-N′-(4-fluorophenyl)cyclopropane-1,1-dicarboxamide], the IC50 at HGFR amounted to 36 nM; in experiment [1], 21 nM.

`O=C(Nc1cc(Oc2cc(F)c(NC(=O)C3(C(=O)Nc4ccc(F)cc4)CC3)cc2F)ncn1)N1CC(CO)C1` [Example 99, N-(2,5-Difluoro-4-{[4-({[3-(hydroxymethyl)azetidin-1-yl]carbonyl}amino)pyrimidin-6-yl]oxy}phenyl)-N′-(4-fluorophenyl)cyclopropane-1,1-dicarboxamide]: the results for the IC50 (against HGFR; in experiment [1]) were 14 nM and 18 nM, respectively.

As to `CN(C)C1CCN(C(=O)Nc2cc(Oc3cc(F)c(NC(=O)C4(C(=O)Nc5ccc(F)cc5)CC4)cc3F)ccn2)CC1` [Example 103, N-(4-{[2-({[4-(Dimethylamino)piperidin-1-yl]carbonyl}amino)pyridin-4-yl]oxy}-2,5-difluorophenyl)-N′-(4-fluorophenyl)cyclopropane-1,1-dicarboxamide], the IC50 against HGFR is 12 nM; in experiment [1], 5.8 nM.

`CN(C)CCN1CCN(C(=O)Nc2cc(Oc3ccc(NC(=O)C4(C(=O)Nc5ccc(F)cc5)CC4)c(F)c3)ccn2)CC1` [Example 2, N-[4-({2-[({4-[2-(Dimethylamino)ethyl]piperazin-1-yl}carbonyl)amino]pyridin-4-yl}oxy)-2-fluorophenyl]-N′-(4-fluorophenyl)cyclopropane-1,1-dicarboxamide]: the IC50 amounted to 21 nM against HGFR and 18 nM in experiment [1].

Turning to `O=C(Nc1cc(Oc2ccc(NC(=O)C3(C(=O)Nc4ccc(F)cc4)CC3)c(F)c2)ccn1)N1CCOCC1` [Example 63, N-[2-Fluoro-4-({2-[(morpholin-4-ylcarbonyl)amino]pyridin-4-yl}oxy)phenyl]-N′-(4-fluorophenyl)cyclopropane-1,1-dicarboxamide], the figures for the IC50 (against HGFR; in experiment [1]) were 21 nM and 54 nM, respectively.

As to `CN(C)CCN1CCC(N(C)C(=O)Nc2cc(Oc3ccc(NC(=O)C4(C(=O)Nc5ccc(F)cc5)CC4)cc3)ccn2)CC1` [Example 39, N-(4-{[2-({[{1-[2-(Dimethylamino)ethyl]piperidin-4-yl}(methyl)amino]carbonyl}amino)pyridin-4-yl]oxy}phenyl)-N′-(4-fluorophenyl)cyclopropane-1,1-dicarboxamide], the IC50 against HGFR worked out at 16 nM; in experiment [1] it was 38 nM.

`CN1CCC(N(C)C(=O)Nc2cc(Oc3ccc(NC(=O)C4(C(=O)Nc5ccccc5F)CC4)c(F)c3)ccn2)CC1` [Example 57, N-(2-Fluoro-4-{[2-({[methyl(1-methylpiperidin-4-yl)amino]carbonyl}amino)pyridin-4-yl]oxy}phenyl)-N′-(2-fluorophenyl)cyclopropane-1,1-dicarboxamide]: the figures for the IC50 (against HGFR; in experiment [1]) were 82 nM and 150 nM, respectively.

On to `CN1CCN(C2CCN(C(=O)Nc3cc(Oc4ccc(NC(=O)C5(C(=O)Nc6ccc(F)cc6)CC5)cc4F)ccn3)CC2)CC1` [Example 20, N-(3-Fluoro-4-{[2-({[-4-(4-methylpiperazin-1-yl)piperidin-1-yl]-carbonyl}amino)pyridin-4-yl]oxy}phenyl)-N′-(4-fluorophenyl)cyclopropane-1,1-dicarboxamide], for which the values for the IC50 (at HGFR; in experiment [1]) were 22 nM and 15 nM, respectively.
